# Read-outs that look alike come from different tables or passages of the source.
# Key:
# [1] = tested on: acetylcholine-induced bronchospasm; experiment: Bronchospasmolytic activity (Konzett-Rossler): inhibition of acetylcholine-induced bronchospasm in guinea-pigs; assay type: in vivo; conditions: Cavia porcellus, guinea-pig, urethane anaesthesia, read-out: Bronchospasmolytic effect (ED50) compared to acetylcholine
# Description: (§1) The test substances were administered in aqueous solution either intravenously (i.v.) or intraduodenally (i.d.). The ED50 values, which represent that dose in mg/kg at which the experimentally produced spasm is decreased by one half compared to that in untreated animals, were determined graphically from the dose-activity curves.
# [2] = tested on: histamine-induced bronchospasm; experiment: Bronchospasmolytic activity (Konzett-Rossler): inhibition of histamine-induced bronchospasm in guinea-pigs; assay type: in vivo; conditions: Cavia porcellus, guinea-pig, urethane anaesthesia, read-out: Bronchospasmolytic effect (ED50) compared to histamine
# Description: as §1
# [3] = tested on: serotonine-induced bronchospasm; experiment: Bronchospasmolytic activity (Konzett-Rossler): inhibition of serotonine-induced bronchospasm in guinea-pigs; assay type: in vivo; conditions: Cavia porcellus, guinea-pig, urethane anaesthesia, read-out: Bronchospasmolytic effect (ED50) compared to serotonine
# Description: as §1
# Ratio of LD50 to ED50 = assay type: in vivo, mouse (LD50); guinea-pigs (ED50)
# Description: as §1
# (§2) Determination of the LD50 values was by the standard method of the mortality occurring within 7 days among NMRI mice after a single intravenous (i.v.), intraperitoneal (i.p.) or oral (p.o.) administration.
# NMRI mice = conditions: mouse, i.v.; according to German Offenlegungsschrift 2,716,402; 10080 min; cited from earlier work
# central nervous system [4] = conditions: according to German Offenlegungsschrift No. 2,716,402; markedly less than theophylline; cited from earlier work
# [5] = background statement; cited from earlier work
# [6] = background statement; cited from earlier work; remark: listed apart in the source
# [7] = cited from earlier work; for side-effects / therapeutic range: background statement
# [8] = Acute toxicity, mortality within 7 days among NMRI mice after single administration; conditions: in vivo, mouse
# From the text: as §2
# *determined by the method of Litchfield and Wilcoxon (J. Pharmacol. exp.
# [9] = tested on: bronchospasm induced with bradykinin; experiment: Inhibitory effect on bronchospasm induced in guinea-pigs with bradykinin; assay type: in vivo; conditions: for ED50: Cavia porcellus, read-out: ED50, bronchospasm induced with bradykinin
# From the text: Since it is regarded as proven that, apart from the biogenic amines, acetylcholine, histamine and serotonine, listed in Table 4, bradykinin also plays an important part as a mediator substance in the provocation of asthma attacks, the inhibitory effect on the bronchospasm induced in guinea-pigs with bradykinin was investigated.
# [10] = tested on: bronchospastic reactions induced with aerosols of acetylcholine, histamine and ascaris extract; experiment: Pulmonary function test on the anaesthetized dog: inhibition of bronchospastic reactions induced with aerosols of acetylcholine, histamine and ascaris extract; assay type: in vivo
# central nervous system [11] = tested on: central nervous system; set-up: species or system mice; conditions: mouse, in vivo, po
# Description: In contrast, the compounds of the formula I according to the invention have no component stimulating the central nervous system, but, on the contrary, exert a slight depressant effect on the central nervous system which is assessed to be particularly advantageous from the therapeutic point of view. Thus, the spontaneous motility of mice, for example, is decreased by 53% for a period of 11 hours after oral administration of 50 mg/kg of the compound from Example 1.
# [12] = LD50 i.v. mouse from German Offenlegungsschrift 2,716,402, ED50 i.v. guinea-pig
# [13] = LD50 i.v. mouse, ED50 i.v. guinea-pig
# [14] = LD50 i.p. mouse, ED50 i.v. guinea-pig
Compound,ED50 ([1]; iv),ED50 ([2]; iv),ED50 ([3]; iv),LD50 at 168 h ([8]; iv),ratio of LD50 to ED50 (head is drawing 107) (Ratio of LD50 to ED50; [13]),further results
"CCCn1c(=O)c2c(ncn2CC(O)CO)n(CCC)c1=O (centres unmarked) [7-(2,3-dihydroxypropyl)-1,3-dipropylxanthine]",> 10 mg/kg,6.5 mg/kg,10 mg/kg,–,–,"ratio of LD50 to ED50 (head is drawing 107) (Ratio of LD50 to ED50; [12]): < 32; Toxicity LD50 (NMRI mice): 287 mg/kg; stimulation of the central nervous system (central nervous system [4]): stimulation of the central nervous system; water solubility [5]: readily soluble in water; bronchospasmolytic activity compared to theophylline [6]: almost to reach the bronchospasmolytic activity of theophylline; acute toxicity compared to theophylline ([7]; German Offenlegungsschrift No. 2,716,402): lower acute toxicity; side-effects [7]: fewer disadvantageous side-effects"
"Cn1c(=O)c2c(ncn2CC(O)CO)n(C)c1=O (centres unmarked) [Diphylline, 7-(2,3-dihydroxypropyl)-1,3-dimethylxanthine]",> 30 mg/kg,> 30 mg/kg,> 30 mg/kg,–,–,ratio of LD50 to ED50 (head is drawing 107) (Ratio of LD50 to ED50; [12]): < 30; Toxicity LD50 (NMRI mice): 886 mg/kg; stimulation of the central nervous system (central nervous system [4]): stimulation of the central nervous system; water solubility [5]: good water solubility; bronchospasmolytic activity compared to theophylline [6]: drastic decrease in the bronchospasmolytic activity; side-effects [7]: much less pronounced
"CCCn1c(=O)c2c(ncn2CCCCC(O)CO)n(CC)c1=O (centres unmarked) [Example 1, 3-Ethyl-7-(5,6-dihydroxyhexyl)-1-propylxanthine]",2 mg/kg,0.2 mg/kg,0.3 mg/kg,254 mg/kg,305,"ED50 ([1]; i.d. (intraduodenal)): 6.3 mg/kg; ED50 ([2]; i.d. (intraduodenal)): 25 mg/kg; ED50 ([3]; i.d. (intraduodenal)): 15 mg/kg; LD50 at 168 h ([8]; po): 1450 mg/kg; ratio of LD50 to ED50 (head is drawing 107) (Ratio of LD50 to ED50; LD50 p.o. mouse, ED50 i.d. guinea-pig): 94; ED50 ([9]; iv, guinea-pigs): 1 to 3 mg/kg; ED50 ([9]; i.d., guinea-pigs): 4 to 6.3 mg/kg; times more effective than theophylline-ethylenediamine, bradykinin bronchospasm ([9]; i.d.): about 6 times; times more effective than theophylline-ethylenediamine, bradykinin bronchospasm ([9]; i.v.): about 3 times; inhibitory effect on bronchospastic reactions ([10]; 12 mg/kg i.v.): significant inhibitory effect; decrease in spontaneous motility (central nervous system [11]; 50 mg/kg): 53%"
"CCn1c(=O)c2c(ncn2CCCCC(O)CO)n(CC)c1=O (centres unmarked) [Example 2, 1,3-Diethyl-7-(5,6-dihydroxyhexyl)xanthine]",2 mg/kg,2 mg/kg,2 mg/kg,325 mg/kg,163,–
"CCCCn1c(=O)n(CCCC(O)CO)c(=O)c2c1ncn2C (centres unmarked) [Example 7, 3-Butyl-1-(4,5-dihydroxypentyl)-7-methylxanthine]",3 mg/kg,6.5 mg/kg,–,> 200 mg/kg,> 42,–
"CCn1c(=O)c2c(ncn2CC)n(CCCCC(O)CO)c1=O (centres unmarked) [Example 8, 1,7-Diethyl-3-(5,6-dihydroxyhexyl)xanthine]",6.5 mg/kg,6.5 mg/kg,2 mg/kg,> 300 mg/kg,> 60,–
CCCn1c(=O)n(CCCCC(O)CO)c(=O)c2c1ncn2C (centres unmarked) [Example 10],3 mg/kg,3 mg/kg,3 mg/kg,250 mg/kg,83,–
CCCn1c(=O)c2c(ncn2CCC(O)CO)n(CCC)c1=O (centres unmarked) [Example 12],6.5 mg/kg,10 mg/kg,10 mg/kg,–,–,LD50 at 168 h ([8]; ip): > 600 mg/kg; ratio of LD50 to ED50 (head is drawing 107) (Ratio of LD50 to ED50; [14]): > 68
CCCn1c(=O)c2c(ncn2CCCC(O)CO)n(CCC)c1=O (centres unmarked) [Example 13],6.5 mg/kg,6.5 mg/kg,–,–,–,LD50 at 168 h ([8]; ip): 900 mg/kg; ratio of LD50 to ED50 (head is drawing 107) (Ratio of LD50 to ED50; [14]): 138
CCn1c(=O)c2c(ncn2CCCCC(O)CO)n(C)c1=O (centres unmarked) [Example 17],2 mg/kg,6.5 mg/kg,6.5 mg/kg,> 300 mg/kg,> 60,–
CCCn1c(=O)c2c(ncn2CCCCC(O)CO)n(C)c1=O (centres unmarked) [Example 18],6.5 mg/kg,6.5 mg/kg,6.5 mg/kg,300 mg/kg,46,–
CCCCn1c(=O)c2c(ncn2CCCCC(O)CO)n(C)c1=O (centres unmarked) [Example 19],2 mg/kg,2 mg/kg,3 mg/kg,147 mg/kg,63,–
CCCCCn1c(=O)c2c(ncn2CCCCC(O)CO)n(C)c1=O (centres unmarked) [Example 21],3 mg/kg,3 mg/kg,3 mg/kg,155 mg/kg,52,–
CC(C)CCn1c(=O)c2c(ncn2CCCCC(O)CO)n(C)c1=O (centres unmarked) [Example 22],1 mg/kg,3 mg/kg,6.5 mg/kg,167 mg/kg,48,–
CCn1c(=O)n(C)c(=O)c2c1ncn2CCCCC(O)CO (centres unmarked) [Example 24],6.5 mg/kg,2 mg/kg,10 mg/kg,300 mg/kg,49,–
CCn1c(=O)n(C(C)C)c(=O)c2c1ncn2CCCCC(O)CO (centres unmarked) [Example 25],2 mg/kg,6.5 mg/kg,2 mg/kg,> 400 mg/kg,> 114,–
CCCCn1c(=O)c2c(ncn2CCCCC(O)CO)n(CC)c1=O (centres unmarked) [Example 26],2 mg/kg,1.6 mg/kg,0.6 mg/kg,205 mg/kg,146,–
CCCCCn1c(=O)c2c(ncn2CCCCC(O)CO)n(CC)c1=O (centres unmarked) [Example 28],2 mg/kg,3 mg/kg,3 mg/kg,200 mg/kg,75,–
CCCn1c(=O)n(C)c(=O)c2c1ncn2CCCCC(O)CO (centres unmarked) [Example 30],6.5 mg/kg,2 mg/kg,–,250 mg/kg,59,–
CCCn1c(=O)c2c(ncn2CCCC(O)C(C)O)n(CC)c1=O (centres unmarked) [Example 33],6 mg/kg,3 mg/kg,2 mg/kg,> 200 mg/kg,> 55,–
CCCn1c(=O)c2c(ncn2CCCCCC(O)CO)n(CC)c1=O (centres unmarked) [Example 51],2 mg/kg,2 mg/kg,–,300 mg/kg,150,–
"Cn1c(=O)c2[nH]cnc2n(C)c1=O.NCCN [Theophylline-ethylenediamine, theophylline-ethylenediamine, reference compound]",8.3 mg/kg,5.6 mg/kg,7.3 mg/kg,195 mg/kg,–,LD50 at 168 h ([8]; po): 550 mg/kg; ED50 ([9]; iv): 3 to 10 mg/kg; ED50 [9]: 25 to 40 mg/kg; increase in spontaneous motility (central nervous system [11]; 30 mg/kg): 186%; therapeutic range [7]: not associated with a significant increase in the therapeutic range
NCCN [ethylenediamine],–,–,–,–,–,side-effects [7]: deleterious effect on the cardiovascular system
"Cn1c(=O)c2[nH]cnc2n(C)c1=O [theophylline, 1,3-dimethylxanthine]",–,–,–,–,–,effect on bronchospastic reactions ([10]; doses up to 20 mg/kg i.v.): no effect; water solubility [5]: lack of water solubility; therapeutic range [7]: very narrow therapeutic range

# Reference: patent publication US4616020A, “Medicaments, vicinal dihydroxyalkylxanthines contained therein, processes for the preparation of these xanthine compounds and intermediate products suitable for these” (Hoechst Aktiengesellschaft, priority 1981, dated 1986)
